Test results reported in ChEMBL document CHEMBL3885861, “Open TG-GATES”.

Species: Rattus norvegicus
Assay: Open TG-GATES - Regimen: Single
Format: toxicity, organism-based, Sprague-Dawley
Parameters: regimen Single, gender Male, age 6 weeks
Details: in vivo, po, 200 mg/kg, route gavage, dose level High; for APTT / Bas / Eos / Fbg / Hb / Ht / Lym / MCH / MCHC / MCV / Mono / Neu / PT / Plat / RBC / Ret / WBC: tissue Blood; for KIDNEY_L / KIDNEY_R / KIDNEY_TOTAL: tissue Kidney; for LIVER: tissue Liver; for A/G / ALP / ALT / AST / BUN / CRE / Ca / Cl / DBIL / GLC / IP / K / LDH / Na / PL / RALB / TBIL / TC / TG / TP / gamma-GTP: tissue Plasma

Cn1c(=O)c2[nH]cnc2n(C)c1=O.O [THEOPHYLLINE]
TERMINAL_BW (3 h): 215.6 g | APTT (3 h): 22.6 s | Bas (3 h): 0% | Eos (3 h): 1% | Fbg (3 h): 278 mg/dL | Hb (3 h): 12.3 g/dL | Ht (3 h): 37.4% | Lym (3 h): 67.2% | MCH (3 h): 20.1 pg | MCHC (3 h): 32.9% | MCV (3 h): 60.9 fL | Mono (3 h): 3% | Neu (3 h): 28% | PT (3 h): 15.9 s | Plat (3 h): 113.5 x10_4/uL | RBC (3 h): 614.2 x10_4/ul | Ret (3 h): 7.9% | WBC (3 h): 58.9 x10_2/uL | KIDNEY_L (3 h): 0.9 g | KIDNEY_R (3 h): 0.9 g | KIDNEY_TOTAL (3 h): 1.8 g | LIVER (3 h): 9.1 g | A/G (3 h): 1.3 | ALP (3 h): 1241.4 IU/L | ALT (3 h): 43.8 IU/L | AST (3 h): 93.6 IU/L | BUN (3 h): 13.8 mg/dL | CRE (3 h): 0.1 mg/dL | Ca (3 h): 10 mg/dL | Cl (3 h): 104.4 meq/L | DBIL (3 h): 0 mg/dL | GLC (3 h): 202.8 mg/dL | IP (3 h): 7.2 mg/dL | K (3 h): 3.2 meq/L | LDH (3 h): 215.8 IU/L | Na (3 h): 136.8 meq/L | PL (3 h): 109.8 mg/dL | RALB (3 h): 3.1 g/dL | TBIL (3 h): 0.014 mg/dL | TC (3 h): 66.8 mg/dL | TG (3 h): 20 mg/dL | TP (3 h): 5.4 g/dL | gamma-GTP (3 h): 1.8 IU/L | TERMINAL_BW (6 h): 216 g | APTT (6 h): 22.3 s | Bas (6 h): 0% | Eos (6 h): 0.2% | Fbg (6 h): 329.2 mg/dL | Hb (6 h): 13.1 g/dL | Ht (6 h): 39.7% | Lym (6 h): 58.6% | MCH (6 h): 20.6 pg | MCHC (6 h): 33.1% | MCV (6 h): 62.3 fL | Mono (6 h): 3.6% | Neu (6 h): 35.6% | PT (6 h): 15.5 s | Plat (6 h): 123.7 x10_4/uL | RBC (6 h): 636.8 x10_4/ul | Ret (6 h): 7.6% | WBC (6 h): 75.8 x10_2/uL | KIDNEY_L (6 h): 1 g | KIDNEY_R (6 h): 1 g | KIDNEY_TOTAL (6 h): 1.9 g | LIVER (6 h): 9.5 g | A/G (6 h): 1.3 | ALP (6 h): 1423 IU/L | ALT (6 h): 46.2 IU/L | AST (6 h): 111.4 IU/L | BUN (6 h): 13.8 mg/dL | CRE (6 h): 0.2 mg/dL | Ca (6 h): 10.4 mg/dL | Cl (6 h): 108.2 meq/L | DBIL (6 h): 0 mg/dL | GLC (6 h): 206.6 mg/dL | IP (6 h): 6.8 mg/dL | K (6 h): 3.5 meq/L | LDH (6 h): 212.6 IU/L | Na (6 h): 140.2 meq/L | PL (6 h): 127 mg/dL | RALB (6 h): 3.4 g/dL | TBIL (6 h): 0.016 mg/dL | TC (6 h): 72 mg/dL | TG (6 h): 22.2 mg/dL | TP (6 h): 6.1 g/dL | gamma-GTP (6 h): 1.4 IU/L | TERMINAL_BW (9 h): 212.2 g | APTT (9 h): 24.6 s | Bas (9 h): 0% | Eos (9 h): 0% | Fbg (9 h): 335.8 mg/dL | Hb (9 h): 12.9 g/dL | Ht (9 h): 38.7% | Lym (9 h): 69.4% | MCH (9 h): 20.3 pg | MCHC (9 h): 33.4% | MCV (9 h): 60.9 fL | Mono (9 h): 1.4% | Neu (9 h): 28.6% | PT (9 h): 15.5 s | Plat (9 h): 120.5 x10_4/uL | RBC (9 h): 634.8 x10_4/ul | Ret (9 h): 7.6% | WBC (9 h): 51.8 x10_2/uL | KIDNEY_L (9 h): 0.9 g | KIDNEY_R (9 h): 0.9 g | KIDNEY_TOTAL (9 h): 1.8 g | LIVER (9 h): 8.7 g | A/G (9 h): 1.3 | ALP (9 h): 1474.4 IU/L | ALT (9 h): 38.8 IU/L | AST (9 h): 86.2 IU/L | BUN (9 h): 12 mg/dL | CRE (9 h): 0.2 mg/dL | Ca (9 h): 10.8 mg/dL | Cl (9 h): 105 meq/L | DBIL (9 h): 0 mg/dL | GLC (9 h): 193.6 mg/dL | IP (9 h): 7.1 mg/dL | K (9 h): 3.5 meq/L | LDH (9 h): 182.8 IU/L | Na (9 h): 139 meq/L | PL (9 h): 141 mg/dL | RALB (9 h): 3.4 g/dL | TBIL (9 h): 0.026 mg/dL | TC (9 h): 77.4 mg/dL | TG (9 h): 30.6 mg/dL | TP (9 h): 6.2 g/dL | gamma-GTP (9 h): 1.2 IU/L | TERMINAL_BW (24 h): 224.5 g | APTT (24 h): 21.6 s | Bas (24 h): 0% | Eos (24 h): 0.4% | Fbg (24 h): 370.4 mg/dL | Hb (24 h): 13.9 g/dL | Ht (24 h): 41.2% | Lym (24 h): 70.2% | MCH (24 h): 20.7 pg | MCHC (24 h): 33.6% | MCV (24 h): 61.4 fL | Mono (24 h): 3.2% | Neu (24 h): 24% | PT (24 h): 16.3 s | Plat (24 h): 124.1 x10_4/uL | RBC (24 h): 670.4 x10_4/ul | Ret (24 h): 7% | WBC (24 h): 103.6 x10_2/uL | KIDNEY_L (24 h): 0.9 g | KIDNEY_R (24 h): 1 g | KIDNEY_TOTAL (24 h): 1.9 g | LIVER (24 h): 9.4 g | A/G (24 h): 1.2 | ALP (24 h): 1552.6 IU/L | ALT (24 h): 44.8 IU/L | AST (24 h): 76.2 IU/L | BUN (24 h): 16.4 mg/dL | CRE (24 h): 0.2 mg/dL | Ca (24 h): 11.2 mg/dL | Cl (24 h): 104.4 meq/L | DBIL (24 h): 0 mg/dL | GLC (24 h): 186.4 mg/dL | IP (24 h): 8.4 mg/dL | K (24 h): 4 meq/L | LDH (24 h): 180 IU/L | Na (24 h): 141.6 meq/L | PL (24 h): 129.8 mg/dL | RALB (24 h): 3.1 g/dL | TBIL (24 h): 0.018 mg/dL | TC (24 h): 75 mg/dL | TG (24 h): 38.8 mg/dL | TP (24 h): 5.6 g/dL | gamma-GTP (24 h): 1.4 IU/L
